Data taken from paper PMC4499129, “DNA3′pp5′G de-capping activity of aprataxin: effect of cap nucleoside analogs and structural basis for guanosine recognition” (Nucleic Acids Research, 2015).

How the values were obtained:
[1] = target: T1, Aprataxin-(33-232) (Schizosaccharomyces pombe, UniProt O74859); assay: X-ray crystal structure, […] Å; type: binding; conditions: co-crystallised with 5 mM GMP, pH 8.0, active site of protomer B
T1 construct: gene hnt3; catalytic domain aa 33-232 (HIT domain + zinc finger), His10Smt3 tag cut by Ulp1, tag-free; E. coli BL21(DE3); two protomers per asymmetric unit
T1 sequence (O74859 33-232): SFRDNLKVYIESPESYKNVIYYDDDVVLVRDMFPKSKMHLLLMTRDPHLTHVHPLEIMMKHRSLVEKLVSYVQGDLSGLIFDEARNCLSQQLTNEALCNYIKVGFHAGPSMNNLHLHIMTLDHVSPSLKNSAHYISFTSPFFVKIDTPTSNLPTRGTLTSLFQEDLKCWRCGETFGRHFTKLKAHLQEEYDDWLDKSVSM

[2] = target: T2, aprataxin-(33-232), catalytic domain (HIT + Zn finger) (Schizosaccharomyces pombe, UniProt O74859 33-232); assay: X-ray crystallography (2.25 A, P321); Zn2+, guanosine in active site; complementary 3'-PO4 strand … was in the mix but not in the crystal; Crystallization: aprataxin-(33-232) with 5 mM guanosine and 1.2 mM of each 10-mer, mixed with 15% PEG-3350, 0.15 M magnesium acetate; pH and temperature not given in the material; conditions: protein: recombinant; chain copies: 2; two copies of the same strand; blunt 10-nt duplex, 8/10 mismatches, only terminal G:C pairs canonical
T2 sequence: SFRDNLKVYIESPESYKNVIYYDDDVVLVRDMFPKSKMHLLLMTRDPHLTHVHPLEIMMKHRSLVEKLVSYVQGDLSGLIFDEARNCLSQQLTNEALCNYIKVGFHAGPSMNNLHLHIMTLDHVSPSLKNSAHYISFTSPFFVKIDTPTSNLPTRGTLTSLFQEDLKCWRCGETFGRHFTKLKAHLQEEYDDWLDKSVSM

**Q.** With Nc1nc2c(ncn2[C@@H]2O[C@H](COP(=O)(O)O)[C@@H](O)[C@H]2O)c(=O)[nH]1 [GMP] as the molecule, how does the “X-ray crystal structure, 1.5 Å” value ([1]; anti conformation) read?
**A.** The value was “The refined model included guanosine in the active site of the A protomer and GMP”.

**Q.** How did the “X-ray crystal structure, 1.5 Å” value ([1]; anti conformation crystal, grown with 5 mM GMP (no guanosine added), guanosine modelled in active site of protomer A, anti conformatio) turn out when Nc1nc2c(ncn2[C@@H]2O[C@H](CO)[C@@H](O)[C@H]2O)c(=O)[nH]1 [guanosine] was run?
**A.** The value was “Difference density allowed placement of guanosine in the active site of the A protomer”.

B1: 10-mer self-paired mismatched duplex HO-GAATCATAAC-OH (dsDNA)
DNA 1: GAATCATAAC
DNA 2: GAATCATAAC
modifications: 5'-OH and 3'-OH ends
**Q.** Does B1 bind [2]?
**A.** Result: binds
